The values below come from paper PMC7400577 (Scientific Reports, 2020).

Common to all, as to format: cell-based
One experiment concerns the target T1, hBGT1 (Homo sapiens, UniProt P48065).
T1 construct: expressed in transfected cells
T1 sequence (P48065 1-614): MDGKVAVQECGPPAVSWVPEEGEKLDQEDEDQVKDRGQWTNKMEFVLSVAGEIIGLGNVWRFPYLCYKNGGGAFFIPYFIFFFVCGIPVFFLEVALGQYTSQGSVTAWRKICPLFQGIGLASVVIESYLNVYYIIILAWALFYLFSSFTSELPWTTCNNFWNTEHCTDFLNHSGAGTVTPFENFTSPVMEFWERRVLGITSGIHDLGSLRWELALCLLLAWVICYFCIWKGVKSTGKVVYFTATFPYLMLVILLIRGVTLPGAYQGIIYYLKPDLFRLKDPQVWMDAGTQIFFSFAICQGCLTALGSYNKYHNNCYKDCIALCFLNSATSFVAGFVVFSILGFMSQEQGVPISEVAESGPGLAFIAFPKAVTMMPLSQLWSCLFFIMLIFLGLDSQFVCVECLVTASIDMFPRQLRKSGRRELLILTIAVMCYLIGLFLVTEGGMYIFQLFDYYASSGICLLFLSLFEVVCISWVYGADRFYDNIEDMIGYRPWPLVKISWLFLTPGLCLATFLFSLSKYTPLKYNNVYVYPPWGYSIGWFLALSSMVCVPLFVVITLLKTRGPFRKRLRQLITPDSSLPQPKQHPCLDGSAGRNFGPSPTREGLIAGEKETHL
The conditions noted are these: for IC50: 30 nM [3H]GABA, 3 min, CHO Flp-In cells stably expressing hBGT1; for subtype-selectivity for hBGT1 over the other hGATs: estimated from [3H]GABA uptake IC50 values, CHO Flp-In cells. As for the experimental part:
(§1) CHO Flp-In and tsA201 cells were cultured at 37 °C in a humidified atmosphere of […] and 5% CO2. As previously described[38],[63], CHO Flp-In cells stably expressing the hGATs were cultured in Ham’s F12 Nutrient Mix supplemented with 10% FBS, 1% P/S and plasmocin (5 µg/mL) under the selection pressure of hygromycin B (200 µg/mL). DMEM with GlutaMAX-I supplemented with 10% FBS and 1% P/S was used as growth medium for the tsA201 cells, which were transfected with DNA constructs using PolyFect according to the manufacturer’s specifications (Qiagen, West Sussex, UK), but with half of the recommended reagent volumes.
(§2) Uptake assays were performed in PDL-coated white 96-well polystyrene cell culture microplates (PerkinElmer, Boston, MA, USA) as previously described[38],[63]. […] Assay buffer was HBSS supplemented with 20 mM HEPES, 1 mM CaCl2 and 1 mM MgCl2, pH 7.4. […] After termination, scintillation liquid (MicroScint-20, PerkinElmer) was added and the radioactivity measured in a TopCount NXT Microplate Scintillation Counter (PerkinElmer).
(§3) Data analysis and statistical evaluation were performed in GraphPad Prism 7.02 (GraphPad Software, San Diego, CA, USA). Concentration-uptake inhibition curves, generated from the radioligand-based uptake assays, were fitted by non-linear regression, using the equation for sigmoidal concentration–response with variable slope: Y = Bottom + (Top–Bottom)/(1 + 10^((logIC50 − X) × HillSlope)), where Y is the response, X is the logarithm of the concentration, Top and Bottom are the plateaus in same units as Y, logIC50 is the concentration giving a response halfway between Bottom and Top, and the HillSlope is the steepness of the curve. For the substrate concentration–response curves generated from the FMP assay, the same equation was used but with logEC50 instead for logIC50. Unless otherwise stated, data are presented as means ± S.E.M. of at least three independent pooled experiments performed in triplicates.

For another experiment, the target named is T2, hGAT1 (Homo sapiens, UniProt P30531).
T2 construct: expressed in transfected cells
Description: [3H]GABA uptake inhibition at hGAT1 stably expressed in CHO Flp-In cells. The conditions noted are these: 30 nM [3H]GABA, 3 min, CHO Flp-In cells stably expressing hGAT1. As for the experimental part:
as §1, §2, §3

In a further experiment the target is T3, hGAT3 (Homo sapiens, UniProt P48066).
T3 construct: expressed in transfected cells
T3 sequence (P48066 1-632): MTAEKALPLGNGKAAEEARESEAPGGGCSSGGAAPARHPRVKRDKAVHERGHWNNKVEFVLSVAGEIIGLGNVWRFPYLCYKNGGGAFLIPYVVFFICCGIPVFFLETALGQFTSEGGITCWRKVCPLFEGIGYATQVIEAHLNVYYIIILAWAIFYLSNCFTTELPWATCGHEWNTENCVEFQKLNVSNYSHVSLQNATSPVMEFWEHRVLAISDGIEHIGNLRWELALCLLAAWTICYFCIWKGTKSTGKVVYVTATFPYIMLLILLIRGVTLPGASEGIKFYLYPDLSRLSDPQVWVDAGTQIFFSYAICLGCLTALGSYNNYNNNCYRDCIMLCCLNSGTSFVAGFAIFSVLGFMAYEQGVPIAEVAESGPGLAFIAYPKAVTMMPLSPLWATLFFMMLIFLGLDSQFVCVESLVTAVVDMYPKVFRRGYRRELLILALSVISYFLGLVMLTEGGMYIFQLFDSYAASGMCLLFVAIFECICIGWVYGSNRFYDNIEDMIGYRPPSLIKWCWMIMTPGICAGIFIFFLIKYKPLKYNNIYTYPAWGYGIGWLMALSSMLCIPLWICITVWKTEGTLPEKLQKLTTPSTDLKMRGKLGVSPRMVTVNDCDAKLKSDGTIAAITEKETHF
Description: [3H]GABA uptake inhibition at hGAT3 stably expressed in CHO Flp-In cells. The conditions noted are these: 30 nM [3H]GABA, 3 min, CHO Flp-In cells stably expressing hGAT3; read-out: IC50 hGAT3. How it is done: as §1, §2, §3

The target in another experiment is T4, hGAT2 (Homo sapiens, UniProt Q9NSD5).
T4 construct: expressed in transfected cells
T4 sequence (Q9NSD5 1-602): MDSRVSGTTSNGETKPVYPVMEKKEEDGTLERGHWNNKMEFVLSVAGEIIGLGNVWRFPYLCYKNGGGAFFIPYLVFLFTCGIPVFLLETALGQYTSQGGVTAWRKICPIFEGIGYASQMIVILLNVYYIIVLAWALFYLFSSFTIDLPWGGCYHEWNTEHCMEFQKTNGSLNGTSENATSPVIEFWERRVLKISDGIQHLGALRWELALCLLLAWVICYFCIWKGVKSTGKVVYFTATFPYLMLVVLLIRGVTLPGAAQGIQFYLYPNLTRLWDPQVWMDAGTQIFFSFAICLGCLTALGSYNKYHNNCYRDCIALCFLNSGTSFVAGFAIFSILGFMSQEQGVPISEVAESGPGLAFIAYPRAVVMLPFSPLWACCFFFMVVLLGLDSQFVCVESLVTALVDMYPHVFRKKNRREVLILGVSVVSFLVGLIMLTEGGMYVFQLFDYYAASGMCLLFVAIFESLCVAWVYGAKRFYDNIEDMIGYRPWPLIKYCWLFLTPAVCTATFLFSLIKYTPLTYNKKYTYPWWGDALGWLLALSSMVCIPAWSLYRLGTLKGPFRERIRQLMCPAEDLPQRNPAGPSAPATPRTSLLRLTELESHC
The experiment is described as follows: [3H]GABA uptake inhibition at hGAT2 stably expressed in CHO Flp-In cells. The conditions noted are these: 30 nM [3H]GABA, 3 min, CHO Flp-In cells stably expressing hGAT2. How it is done:
as §1, §2, §3

The target of a further experiment is T5, hBGT1 wt (Homo sapiens, UniProt P48065).
T5 construct: expressed in transfected cells; host or cells: tsA201 cells, transient (PolyFect), pcDNA5/FRT vector
T5 sequence (P48065 1-614): T1 sequence (P48065 1-614)
Description: [3H]GABA uptake inhibition at wt hBGT1 transiently expressed in tsA201 cells. The conditions noted are these: 30 nM [3H]GABA, tsA201 cells transiently expressing wt hBGT1.

Setting [1] is: read-out: pIC50 ± S.E.M. hBGT1 (converted).
Where [2] appears, read: read-out: pIC50 ± S.E.M. hGAT2 (converted).

Where two headings read alike, the source gives them in different places.

T2 sequence (P30531 whole entry): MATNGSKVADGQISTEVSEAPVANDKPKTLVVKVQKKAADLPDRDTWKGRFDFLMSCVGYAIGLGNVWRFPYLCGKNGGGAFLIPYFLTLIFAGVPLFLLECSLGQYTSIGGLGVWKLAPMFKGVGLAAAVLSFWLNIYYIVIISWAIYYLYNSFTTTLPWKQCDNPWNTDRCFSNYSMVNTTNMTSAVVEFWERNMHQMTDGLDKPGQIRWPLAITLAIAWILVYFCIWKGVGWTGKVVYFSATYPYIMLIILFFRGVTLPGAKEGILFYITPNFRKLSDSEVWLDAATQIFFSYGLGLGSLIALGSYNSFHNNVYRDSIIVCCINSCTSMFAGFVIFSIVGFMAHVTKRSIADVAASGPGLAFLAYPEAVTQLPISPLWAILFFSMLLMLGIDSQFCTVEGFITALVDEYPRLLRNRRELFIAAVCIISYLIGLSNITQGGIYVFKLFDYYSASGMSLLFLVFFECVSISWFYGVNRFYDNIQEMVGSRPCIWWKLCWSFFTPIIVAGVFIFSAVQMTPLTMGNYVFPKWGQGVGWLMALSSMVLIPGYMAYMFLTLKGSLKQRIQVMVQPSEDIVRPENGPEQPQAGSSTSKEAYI

As to `C[C@@H]1N=C(N)NC[C@@H]1C(=O)O` (relative stereo) [l-15], the IC50 on hBGT1 (setting [1]) is 41.7 µM.
Consider `NC1=N[C@@H](CCc2ccc(-c3ccccc3)cc2)[C@@H](C(=O)O)CN1` (relative stereo) [l-19], for which the IC50 on hGAT1 (read-out: IC50 hGAT1), at hGAT3, at hBGT1 (read-out: IC50 hBGT1) and on hGAT2 (read-out: IC50 hGAT2) was over 1000 µM in each case.
`C[C@@H]1N=C(N)NC[C@@H]1C(=O)O` (single isomer, unassigned) [l-15b]: the IC50 on hGAT1 (read-out: IC50 hGAT1) is over 1000 µM; at hGAT3, over 1000 µM; on hBGT1 (read-out: IC50 hBGT1), 442 µM; on hBGT1 (setting [1]), 417 µM; at hGAT2 (read-out: IC50 hGAT2) it was over 1000 µM. Also, the “subtype-selectivity for hBGT1 over the other hGATs” value (“subtype-selectivity for hBGT1” below) at hBGT1 was 2–3 times.
For the compound `C[C@H]1N=C(N)NC[C@@H]1C(=O)O` (single isomer, unassigned) [u-15a], the IC50 is over 1000 µM at hGAT1 (read-out: IC50 hGAT1); over 1000 µM on hGAT3; 292 µM at hBGT1 (read-out: IC50 hBGT1); 269 µM at hBGT1 (setting [1]); over 1000 µM on hGAT2 (read-out: IC50 hGAT2). At hBGT1, the “subtype-selectivity for hBGT1” value is recorded as 2–3 times.
As to `C[C@H]1N=C(N)NC[C@@H]1C(=O)O` (single isomer, unassigned) [u-15b], the IC50 on hGAT1 (read-out: IC50 hGAT1) was over 1000 µM; at hGAT3, over 1000 µM; on hBGT1 (read-out: IC50 hBGT1) it was 85 µM; at hBGT1 (setting [1]) it was 77.6 µM; on hGAT2 (read-out: IC50 hGAT2) it was over 1000 µM. For the same compound, the “subtype-selectivity for hBGT1” value on hBGT1 was “at least 12 times”.
Regarding `NC1=NCC(C(=O)O)CN1CCC(c1ccccc1)c1ccccc1` (stereo not drawn) [compound 6], the IC50 on hGAT1 (read-out: IC50 hGAT1), at hGAT3, on hBGT1 (read-out: IC50 hBGT1) and at hGAT2 (read-out: IC50 hGAT2) was over 1000 µM in each case.
Regarding `NC1=NCC(C(=O)O)CN1CCCC(c1ccccc1)c1ccccc1` (stereo not drawn) [compound 7], the IC50 at hGAT1 (read-out: IC50 hGAT1), on hGAT3, on hBGT1 (read-out: IC50 hBGT1) and on hGAT2 (read-out: IC50 hGAT2) was over 1000 µM in each case.
With `Cc1ccsc1C(=CCCN1CC(C(=O)O)CN=C1N)c1sccc1C` (stereo not drawn) [compound 8], the IC50 is 621 µM at hBGT1 wt (read-out: IC50 BGT1 wt) and 631 µM at hBGT1 wt (read-out: pIC50 ± S.E.M. BGT1 wt (converted)).
Consider `NC1=NCC(C(=O)O)=CN1Cc1ccccc1` [compound 9], for which the IC50 on hBGT1 wt (read-out: IC50 BGT1 wt) was over 1000 µM.
With `O=C(O)C1CN=C(NCCc2ccccc2)NC1` (stereo not drawn) [compound 10], the IC50 was 439 µM on hGAT1 (read-out: IC50 hGAT1); 427 µM at hGAT1 (read-out: pIC50 ± S.E.M. hGAT1 (converted)); over 1000 µM at hGAT3; over 1000 µM at hBGT1 (read-out: IC50 hBGT1); over 1000 µM at hGAT2 (read-out: IC50 hGAT2).
For the compound `CC1=C(C(=O)O)CNC(N)=N1` [compound 12], the IC50 on hGAT1 (read-out: IC50 hGAT1), at hGAT3, on hBGT1 (read-out: IC50 hBGT1) and at hGAT2 (read-out: IC50 hGAT2) was over 1000 µM each time.
Turning to `CCCC1=C(C(=O)O)CNC(N)=N1` [compound 13], the IC50 at hGAT1 (read-out: IC50 hGAT1) is over 1000 µM; on hGAT3, over 1000 µM; at hBGT1 (read-out: IC50 hBGT1) it was over 1000 µM; on hGAT2 (read-out: IC50 hGAT2), 530 µM; at hGAT2 (setting [2]), 501 µM.
For `CC(C)C1=C(C(=O)O)CNC(N)=N1` [compound 14], the IC50 at hGAT1 (read-out: IC50 hGAT1) was over 1000 µM; on hGAT3 it was over 1000 µM; on hBGT1 (read-out: IC50 hBGT1) it was over 1000 µM; at hGAT2 (read-out: IC50 hGAT2) it was 1010 µM; on hGAT2 (setting [2]), 955 µM.
`CCCC1N=C(N)NCC1C(=O)O` (stereo not drawn) [compound 16]: the IC50 was over 1000 µM on hGAT1 (read-out: IC50 hGAT1); over 1000 µM on hGAT3; over 1000 µM on hBGT1 (read-out: IC50 hBGT1); 601 µM on hGAT2 (read-out: IC50 hGAT2); 589 µM on hGAT2 (setting [2]).
On to `CC(C)C1N=C(N)NCC1C(=O)O` (stereo not drawn) [compound 17], for which the IC50 at hGAT1 (read-out: IC50 hGAT1), on hGAT3, on hBGT1 (read-out: IC50 hBGT1) and on hGAT2 (read-out: IC50 hGAT2) was over 1000 µM in each case.
In the case of `NC1=NC(CCc2ccccc2)C(C(=O)O)CN1` (stereo not drawn) [l-18], the IC50 at hGAT1 (read-out: IC50 hGAT1), at hGAT3, on hBGT1 (read-out: IC50 hBGT1) and at hGAT2 (read-out: IC50 hGAT2) was over 1000 µM throughout.
